{"source": "paper PMC7167990", "about": "“Therapeutic Effects of Atranorin towards the Proliferation of Babesia and Theileria Parasites” (Pathogens, 2020)", "key": {"B. microti": {"system": "B. microti", "conditions": "B. microti in vivo; cited from earlier work"}, "B. bigemina": {"system": "B. bigemina", "assay": "In vitro growth inhibition, Babesia fluorescent (SYBR Green I) assay", "type": "cell-based", "conditions": "96 h, 4 days culture, mean of triplicate experiments", "experimental": "(§1) Babesia parasite was incubated and maintained at 37 °C in a humidifying chamber under 5% CO2, 5% O2, and 90% N2 atmosphere using a microaerophilic stationary-phase culture for conducting the in vitro experiment. Briefly, Germany strain Babesia divergens was cultured in cattle RBCs in Roswell Park Memorial Institute 1640 (RPMI 1640; Sigma-Aldrich, St. Louis, MO, USA) medium replenished with 40% cattle serum, while culture medium 199 (M199; Sigma-Aldrich) was utilized for the Argentina strain B. bigemina and Texas strain B. bovis, and T. equi USDA strain cultured in cattle RBCs supplemented with 40% cattle serum and horse RBCs maintained in hypoxanthine (MP Biomedicals, Santa Ana, CA, USA; final concentration 13.6 μg/mL) and 40% horse serum, respectively. GIT medium complemented with 40% horse serum was used as a growth medium for the USDA strain of B. caballi cultured in horse RBCs. To ensure free-bacterial contamination, amphotericin B (0.15 μg/mL) (Sigma-Aldrich), streptomycin (60 U/mL) and penicillin G (60 U/mL) were added to all medium.\n(§2) The Babesia fluorescent assay was carried out on the in vitro culture as previously reported elsewhere to assess the growth of the inhibitory effectiveness of ATR and the combination treatment with DA, CF, and AV. Briefly, in three separate trials, using two-fold dilution, different concentrations of ATR, DA, CF, and AV were prepared in the culture medium and added in 96-well plates in triplicate with 1% parasitemia for T. equi, B. divergens and B. caballi at 5% HCT, while for B. bigemina and B. bovis using 2.5% HCT. The drug combined efficacy was conducted at the same time with the single-treatment assay in accordance with the Chou–Talalay method. […] On day four of culture, an aliquot (100 µL) of lysis buffer mixed with 0.2μL/mL SG1 was added per well; subsequently, it was covered with aluminum foil to prevent exposure to light. After incubation for 6-h at 37 °C, fluorescence readings were acquired on a spectrofluorimeter (Fluoroskan Ascent, Thermo Fisher Scientific, Oceanside, CA, USA) with a 485 nm excitation wavelength and a 518 nm emission wavelength.\n(§3) The IC50 values of ATR, DA, CF, and AV were established from the in vitro growth inhibition by nonlinear regression curve fit on a GraphPad Prism (GraphPad Software Inc., San Diego, CA, USA). […] The significant variations (p < 0.05) among group mean values on parasitemia and one-way ANOVA Tukey’s test in GraphPad Prism version 5.0 was used to analyze hematology profiles in mice infected with B. microti."}, "B. bovis": {"system": "B. bovis", "assay": "In vitro growth inhibition, Babesia fluorescent (SYBR Green I) assay", "type": "cell-based", "conditions": "Bos taurus, 96 h, 4 days culture, mean of triplicate experiments", "experimental": "as §1, §2, §3"}, "B. divergens": {"system": "B. divergens", "assay": "In vitro growth inhibition, Babesia fluorescent (SYBR Green I) assay", "type": "cell-based", "conditions": "96 h, 4 days culture, mean of triplicate experiments", "experimental": "as §1, §2, §3"}, "T. equi": {"system": "T. equi", "assay": "In vitro growth inhibition, Babesia fluorescent (SYBR Green I) assay", "type": "cell-based", "conditions": "96 h, 4 days culture, mean of triplicate experiments", "experimental": "as §1, §2, §3"}, "MDBK cells": {"system": "MDBK cells", "assay": "Cytotoxicity assay (CCK-8 cell viability)", "type": "cell-based, bovine", "experimental": "(§4) Cultures of human foreskin fibroblast (HFF; HFF-1 ATCC® SCRC-1041™), Madin–Darby bovine kidney (MDBK; ECACC) and mouse embryonic fibroblast (NIH/3T3; ATCC® CRL-1658™) cells were retrieved from −80 °C stock and cultured continuously at 37 °C under atmosphere 5% CO2 in our laboratory. The NIH/3T3 and HFFs cells were maintained in Dulbecco Modified Eagle’s Medium (DMEM; Gibco, Grand Island, NY, USA), while MDBK cell line grown in Minimum Essential Medium Eagle (MEM; Gibco). Each medium was treated with 0.5% penicillin/streptomycin (Gibco), 10% inactivated fetal bovine serum and 2 mM glutamine. Every 72 to 96 h, the medium was replaced, and once 80% confluence was reached, the cell collection was performed by sub-culture protocol. To confirm the absence of mycoplasma contamination, 4,6-diamidino-2-phenylindole dihydrochloride stain (Sigma-Aldrich) was used.\n(§5) The cell viability test was conducted in a 96-well plate as described elsewhere. Briefly, an aliquot of (100 µL) cells was implanted at a concentration of 5 × 10^4 cells/mL in DMEM or MEM with fetal bovine serum and incubated overnight under atmosphere 5% CO2 at 37 °C for attachment. Using two-fold dilutions, aliquots (10 µL) of drugs were added in triplicate per well to attain final concentrations of 50 to 1000 µM and further incubated for 24 h. The positive control wells containing cells mixed with the medium in 0.4% DMSO, whereas the negative control wells containing culture medium only. After a 24-h incubation, Cell Counting Kits-8 (CCK-8, 10 µL) was added to each well and then plate incubation was conducted for an additional 3 h and a microplate reader was used to assess the absorbance at 450 nm."}, "NIH/3T3 cells": {"system": "NIH/3T3 cells", "assay": "Cytotoxicity assay (CCK-8 cell viability)", "type": "cell-based, mouse", "experimental": "as §4, §5"}, "HFFs": {"system": "HFFs", "assay": "Cytotoxicity assay (CCK-8 cell viability)", "type": "cell-based, human", "experimental": "as §4, §5"}}}
{"smiles": "C=CCS[S+]([O-])CC=C", "note": "(stereo not drawn) [allicin]", "values": [{"measurement": "chemotherapeutic effect", "setting": "B. microti", "value": 58.3, "unit": "%"}]}
{"smiles": "CCn1cc(C(=O)O)c(=O)c2cc(F)c(N3CCNCC3)cc21", "note": "[norfloxacin]", "values": [{"measurement": "chemotherapeutic effect", "setting": "B. microti", "value": 31, "unit": "%"}]}
{"smiles": "CC(C)/N=c1\\cc2n(-c3ccc(Cl)cc3)c3ccccc3nc-2cc1Nc1ccc(Cl)cc1", "note": "[CF, clofazimine]", "values": [{"measurement": "IC50", "setting": "B. bigemina", "value": "5.73 ± 1.9", "unit": "µM"}, {"measurement": "IC50", "setting": "B. bovis", "value": "8.24 ± 1.7", "unit": "µM"}, {"measurement": "IC50", "setting": "B. divergens", "value": "13.8 ± 4.3", "unit": "µM"}, {"measurement": "IC50", "setting": "T. equi", "value": "2.88 ± 0.9", "unit": "µM"}, {"measurement": "EC50", "setting": "MDBK cells; Bos taurus, MDBK cells, 24 h, CCK-8", "value": "34.7 ± 3.4", "unit": "µM"}, {"measurement": "Selective Index MDBK", "setting": "MDBK cells; EC50 MDBK / IC50 B. bigemina", "value": 6.1}, {"measurement": "Selective Index MDBK", "setting": "MDBK cells; EC50 MDBK / IC50 B. bovis", "value": 4.2}, {"measurement": "Selective Index MDBK", "setting": "MDBK cells; EC50 MDBK / IC50 B. caballi", "value": 4.4}, {"measurement": "Selective Index MDBK", "setting": "MDBK cells; EC50 MDBK / IC50 B. divergens", "value": 2.5}, {"measurement": "Selective Index MDBK", "setting": "MDBK cells; EC50 MDBK / IC50 T. equi", "value": 12.1}, {"measurement": "Selective Index NIH/3T3", "setting": "NIH/3T3 cells; EC50 NIH/3T3 / IC50 B. bigemina", "value": "˃17.5"}, {"measurement": "Selective Index NIH/3T3", "setting": "NIH/3T3 cells; EC50 NIH/3T3 / IC50 B. bovis", "value": "˃12.1"}, {"measurement": "Selective Index NIH/3T3", "setting": "NIH/3T3 cells; EC50 NIH/3T3 / IC50 B. caballi", "value": "˃12.6"}, {"measurement": "Selective Index NIH/3T3", "setting": "NIH/3T3 cells; EC50 NIH/3T3 / IC50 B. divergens", "value": "˃7.2"}, {"measurement": "Selective Index NIH/3T3", "setting": "NIH/3T3 cells; EC50 NIH/3T3 / IC50 T. equi", "value": "˃34.7"}, {"measurement": "EC50", "setting": "NIH/3T3 cells; Mus musculus, NIH3T3, NIH/3T3 cells, 24 h, CCK-8, read-out: EC50 NIH/3T3", "value": "> 100", "unit": "µM"}, {"measurement": "Selective Index HFFs", "setting": "HFFs; EC50 HFFs / IC50 B. bigemina", "value": "˃17.5"}, {"measurement": "Selective Index HFFs", "setting": "HFFs; EC50 HFFs / IC50 B. bovis", "value": "˃12.1"}, {"measurement": "Selective Index HFFs", "setting": "HFFs; EC50 HFFs / IC50 B. caballi", "value": "˃12.6"}, {"measurement": "Selective Index HFFs", "setting": "HFFs; EC50 HFFs / IC50 B. divergens", "value": "˃7.2"}, {"measurement": "Selective Index HFFs", "setting": "HFFs; EC50 HFFs / IC50 T. equi", "value": "˃34.7"}, {"measurement": "EC50", "setting": "HFFs; Homo sapiens, HFFs, 24 h, CCK-8", "value": "> 100", "unit": "µM"}]}
{"smiles": "O=c1oc2c(O)c(O)cc3c(=O)oc4c(O)c(O)cc1c4c23", "note": "[ellagic acid]", "values": [{"measurement": "chemotherapeutic effect", "setting": "B. microti", "value": 49, "unit": "%"}]}
{"smiles": "CC1=CC(=O)C(C(C)C)=CC1=O", "note": "[thymoquinone]", "values": [{"measurement": "chemotherapeutic effect", "setting": "B. microti", "value": 37, "unit": "%"}]}
{"smiles": "CC1COc2c(N3CCN(C)CC3)c(F)cc3c(=O)c(C(=O)O)cn1c23", "note": "(stereo not drawn) [ofloxacin]", "values": [{"measurement": "chemotherapeutic effect", "setting": "B. microti", "value": 49, "unit": "%"}]}
{"smiles": "CCn1cc(C(=O)O)c(=O)c2cc(F)c(N3CCNCC3)nc21", "note": "[enoxacin]", "values": [{"measurement": "chemotherapeutic effect", "setting": "B. microti", "value": 34, "unit": "%"}]}
{"smiles": "COc1cc2c[n+](C)c3c4cc5c(cc4ccc3c2cc1OC)OCO5", "note": "[nitidine chloride]", "values": [{"measurement": "chemotherapeutic effect", "setting": "B. microti", "value": 91, "unit": "%"}]}
{"smiles": "CO[C@H]1/C=C\\C=C(/C)C(=O)NC2=CC(=O)C(NCCN(C)C)=C(C[C@@H](C)C[C@H](OC)[C@H](O)[C@@H](C)/C=C(\\C)[C@@H]1OC(N)=O)C2=O", "note": "[17-DMAG]", "values": [{"measurement": "chemotherapeutic effect", "setting": "B. microti", "value": 89, "unit": "%"}]}
